Experimental data published in ChEMBL document CHEMBL1151757, “Synthesis, radiosynthesis, and biological evaluation of fluorine-18-labeled 2beta-carbo(fluoroalkoxy)-3beta-(3'-((Z)-2-haloethenyl)phenyl)nortropanes: candidate radioligands for in vivo imaging of the serotonin transporter with positron emission tomography” (J Med Chem, 2008).

Key:
[1] = Ratio of drug uptake in pons to cerebellum in anesthetized cynomolgus monkey after 35 mins postinjection; assay type: ADME, organism-based, Macaca fascicularis; details: in vivo
[2] = Ratio of drug uptake in medulla to cerebellum in anesthetized cynomolgus monkey after 18.5 mins postinjection; assay type: ADME, organism-based, Macaca fascicularis; details: in vivo
[3] = Ratio of drug uptake in medulla to cerebellum in anesthetized cynomolgus monkey after 165 mins postinjection; assay type: ADME, organism-based, Macaca fascicularis; details: in vivo, 2.75 h
[4] = Drug uptake in anesthetized cynomolgus monkey brain occipital lobe after 75 mins postinjection; assay type: ADME, organism-based, Macaca fascicularis; details: in vivo, 1.25 h
[5] = Drug uptake in anesthetized cynomolgus monkey brain occipital lobe after 165 mins postinjection; assay type: ADME, organism-based, Macaca fascicularis; details: in vivo, 2.75 h
[6] = Drug uptake in anesthetized cynomolgus monkey brain occipital lobe after 235 mins postinjection; assay type: ADME, organism-based, Macaca fascicularis; details: in vivo
[7] = Drug uptake in anesthetized cynomolgus monkey brain frontal lobe after 3.5 mins postinjection; assay type: ADME, organism-based, Macaca fascicularis; details: in vivo
[8] = Drug uptake in anesthetized cynomolgus monkey brain frontal lobe after 12.5 mins postinjection; assay type: ADME, organism-based, Macaca fascicularis; details: in vivo
[9] = Drug uptake in anesthetized cynomolgus monkey brain frontal lobe after 155 mins postinjection; assay type: ADME, organism-based, Macaca fascicularis; details: in vivo
[10] = Drug uptake in anesthetized cynomolgus monkey brain frontal lobe after 165 mins postinjection; assay type: ADME, organism-based, Macaca fascicularis; details: in vivo, 2.75 h
[11] = Ratio of drug uptake in midbrain to cerebellum in anesthetized cynomolgus monkey after 225 mins postinjection; assay type: ADME, organism-based, Macaca fascicularis; details: in vivo, 3.75 h
[12] = Ratio of drug uptake in occipital lobe to cerebellum in anesthetized cynomolgus monkey after 135 mins postinjection; assay type: ADME, organism-based, Macaca fascicularis; details: in vivo, 2.25 h
Putamen [13] = assay: Drug uptake in anesthetized cynomolgus monkey brain putamen after 155 mins postinjection; assay type: ADME, organism-based, Macaca fascicularis; details: in vivo
Midbrain [14] = assay: Drug uptake in anesthetized cynomolgus monkey brain midbrain after 165 mins postinjection; assay type: ADME, organism-based, Macaca fascicularis; details: in vivo, 2.75 h
Midbrain [15] = assay: Drug uptake in anesthetized cynomolgus monkey brain midbrain after 225 mins postinjection; assay type: ADME, organism-based, Macaca fascicularis; details: in vivo, 3.75 h
Pons [16] = assay: Drug uptake in anesthetized cynomolgus monkey brain pons after 15.5 mins postinjection; assay type: ADME, organism-based, Macaca fascicularis; details: in vivo
[17] = Ratio of drug uptake in caudate to cerebellum in anesthetized cynomolgus monkey after 12.5 mins postinjection; assay type: ADME, organism-based, Macaca fascicularis; details: in vivo
Pons [18] = assay: Drug uptake in anesthetized cynomolgus monkey brain pons after 215 mins postinjection; assay type: ADME, organism-based, Macaca fascicularis; details: in vivo
Pons [19] = assay: Drug uptake in anesthetized cynomolgus monkey brain pons after 225 mins postinjection; assay type: ADME, organism-based, Macaca fascicularis; details: in vivo, 3.75 h
Medulla [20] = assay: Drug uptake in anesthetized cynomolgus monkey brain medulla after 3.5 mins postinjection; assay type: ADME, organism-based, Macaca fascicularis; details: in vivo
Medulla [21] = assay: Drug uptake in anesthetized cynomolgus monkey brain medulla after 22.5 mins postinjection; assay type: ADME, organism-based, Macaca fascicularis; details: in vivo, 0.375 h
Medulla [22] = assay: Drug uptake in anesthetized cynomolgus monkey brain medulla after 27.5 mins postinjection; assay type: ADME, organism-based, Macaca fascicularis; details: in vivo
Medulla [23] = assay: Drug uptake in anesthetized cynomolgus monkey brain medulla after 135 mins postinjection; assay type: ADME, organism-based, Macaca fascicularis; details: in vivo, 2.25 h
Medulla [24] = assay: Drug uptake in anesthetized cynomolgus monkey brain medulla after 155 mins postinjection; assay type: ADME, organism-based, Macaca fascicularis; details: in vivo
[25] = Drug uptake in anesthetized cynomolgus monkey brain cerebellum after 6.5 mins postinjection; assay type: ADME, organism-based, Macaca fascicularis; details: in vivo
[26] = Drug uptake in anesthetized cynomolgus monkey brain cerebellum after 12.5 mins postinjection; assay type: ADME, organism-based, Macaca fascicularis; details: in vivo
[27] = Drug uptake in anesthetized cynomolgus monkey brain cerebellum after 22.5 mins postinjection; assay type: ADME, organism-based, Macaca fascicularis; details: in vivo, 0.375 h
Medulla [28] = assay: Drug uptake in anesthetized cynomolgus monkey brain medulla after 115 mins postinjection; assay type: ADME, organism-based, Macaca fascicularis; details: in vivo
[29] = Drug uptake in anesthetized cynomolgus monkey brain cerebellum after 235 mins postinjection; assay type: ADME, organism-based, Macaca fascicularis; details: in vivo
[30] = Ratio of drug uptake in putamen to cerebellum in anesthetized cynomolgus monkey after 65 mins postinjection; assay type: ADME, organism-based, Macaca fascicularis; details: in vivo
Caudate [31] = assay: Drug uptake in anesthetized cynomolgus monkey brain caudate after 0.5 mins postinjection; assay type: ADME, organism-based, Macaca fascicularis, Caudate nucleus; details: in vivo
Caudate [32] = assay: Drug uptake in anesthetized cynomolgus monkey brain caudate after 1.5 mins postinjection; assay type: ADME, organism-based, Macaca fascicularis, Caudate nucleus; details: in vivo, 0.025 h
Caudate [33] = assay: Drug uptake in anesthetized cynomolgus monkey brain caudate after 9.5 mins postinjection; assay type: ADME, organism-based, Macaca fascicularis, Caudate nucleus; details: in vivo
Caudate [34] = assay: Drug uptake in anesthetized cynomolgus monkey brain caudate after 15.5 mins postinjection; assay type: ADME, organism-based, Macaca fascicularis, Caudate nucleus; details: in vivo
Caudate [35] = assay: Drug uptake in anesthetized cynomolgus monkey brain caudate after 135 mins postinjection; assay type: ADME, organism-based, Macaca fascicularis, Caudate nucleus; details: in vivo, 2.25 h
Caudate [36] = assay: Drug uptake in anesthetized cynomolgus monkey brain caudate after 175 mins postinjection; assay type: ADME, organism-based, Macaca fascicularis, Caudate nucleus; details: in vivo
Caudate [37] = assay: Drug uptake in anesthetized cynomolgus monkey brain caudate after 225 mins postinjection; assay type: ADME, organism-based, Macaca fascicularis, Caudate nucleus; details: in vivo, 3.75 h
[38] = Ratio of drug uptake in occipital lobe to cerebellum in anesthetized cynomolgus monkey after 0.5 mins postinjection; assay type: ADME, organism-based, Macaca fascicularis; details: in vivo
[39] = Ratio of drug uptake in occipital lobe to cerebellum in anesthetized cynomolgus monkey after 18.5 mins postinjection; assay type: ADME, organism-based, Macaca fascicularis; details: in vivo
Thalamus [40] = assay: Drug uptake in anesthetized cynomolgus monkey brain thalamus after 15.5 mins postinjection; assay type: ADME, organism-based, Macaca fascicularis; set-up: unit not given here; details: in vivo
Thalamus [41] = assay: Drug uptake in anesthetized cynomolgus monkey brain thalamus after 18.5 mins postinjection; assay type: ADME, organism-based, Macaca fascicularis; set-up: unit not given here; details: in vivo
Thalamus [42] = assay: Drug uptake in anesthetized cynomolgus monkey brain thalamus after 27.5 mins postinjection; assay type: ADME, organism-based, Macaca fascicularis; set-up: unit not given here; details: in vivo
Putamen [43] = assay: Drug uptake in anesthetized cynomolgus monkey brain putamen after 15.5 mins postinjection; assay type: ADME, organism-based, Macaca fascicularis; set-up: unit not given here; details: in vivo
Putamen [44] = assay: Drug uptake in anesthetized cynomolgus monkey brain putamen after 45 mins postinjection; assay type: ADME, organism-based, Macaca fascicularis; set-up: unit not given here; details: in vivo, 0.75 h
Thalamus [45] = assay: Drug uptake in anesthetized cynomolgus monkey brain thalamus after 95 mins postinjection; assay type: ADME, organism-based, Macaca fascicularis; set-up: unit not given here; details: in vivo
Thalamus [46] = assay: Drug uptake in anesthetized cynomolgus monkey brain thalamus after 105 mins postinjection; assay type: ADME, organism-based, Macaca fascicularis; set-up: unit not given here; details: in vivo, 1.75 h
Thalamus [47] = assay: Drug uptake in anesthetized cynomolgus monkey brain thalamus after 165 mins postinjection; assay type: ADME, organism-based, Macaca fascicularis; set-up: unit not given here; details: in vivo, 2.75 h
Thalamus [48] = assay: Drug uptake in anesthetized cynomolgus monkey brain thalamus after 225 mins postinjection; assay type: ADME, organism-based, Macaca fascicularis; set-up: unit not given here; details: in vivo, 3.75 h
Midbrain [49] = assay: Drug uptake in anesthetized cynomolgus monkey brain midbrain after 0.5 mins postinjection; assay type: ADME, organism-based, Macaca fascicularis; set-up: unit not given here; details: in vivo
Midbrain [50] = assay: Drug uptake in anesthetized cynomolgus monkey brain midbrain after 4.5 mins postinjection; assay type: ADME, organism-based, Macaca fascicularis; set-up: unit not given here; details: in vivo, 0.075 h
Midbrain [51] = assay: Drug uptake in anesthetized cynomolgus monkey brain midbrain after 6.5 mins postinjection; assay type: ADME, organism-based, Macaca fascicularis; set-up: unit not given here; details: in vivo
Midbrain [52] = assay: Drug uptake in anesthetized cynomolgus monkey brain midbrain after 115 mins postinjection; assay type: ADME, organism-based, Macaca fascicularis; set-up: unit not given here; details: in vivo
[53] = Ratio of drug uptake in midbrain to cerebellum in anesthetized cynomolgus monkey after 9.5 mins postinjection; assay type: ADME, organism-based, Macaca fascicularis; details: in vivo
[54] = Ratio of drug uptake in midbrain to cerebellum in anesthetized cynomolgus monkey after 27.5 mins postinjection; assay type: ADME, organism-based, Macaca fascicularis; details: in vivo
[55] = Ratio of drug uptake in midbrain to cerebellum in anesthetized cynomolgus monkey after 125 mins postinjection; assay type: ADME, organism-based, Macaca fascicularis; details: in vivo

## O=C(OCCC[18F])C1C2CCC(CC1c1cccc(/C=C\Br)c1)N2 (stereo not given)
[1]
  Ratio: 0.9
[2]
  Ratio: 1
[3]
  Ratio: 1.7
[4]
  Drug uptake: 4.29
[5]
  Drug uptake: 3.22
[6]
  Drug uptake: 2.53
[7]
  Drug uptake: 1.47
[8]
  Drug uptake: 3.5
[9]
  Drug uptake: 2.65
[10]
  Drug uptake: 2.58
[11]
  Ratio: 2.1
[12]
  Ratio: 1.2
Putamen [13]
  Drug uptake: 4.38
Midbrain [14]
  Drug uptake: 5.06
Midbrain [15]
  Drug uptake: 4.29
Pons [16]
  Drug uptake: 4.79
[17]
  Ratio: 0.7
Pons [18]
  Drug uptake: 3.17
Pons [19]
  Drug uptake: 3.21
Medulla [20]
  Drug uptake: 2.91
Medulla [21]
  Drug uptake: 6.29
Medulla [22]
  Drug uptake: 6.12
Medulla [23]
  Drug uptake: 4.99
Medulla [24]
  Drug uptake: 4.48
[25]
  Drug uptake: 5.03
[26]
  Drug uptake: 5.72
[27]
  Drug uptake: 5.9
Medulla [28]
  Drug uptake: 5.07
[29]
  Drug uptake: 1.87
[30]
  Ratio: 1.3
Caudate [31]
  Drug uptake: 0.01
Caudate [32]
  Drug uptake: 0.31
Caudate [33]
  Drug uptake: 3.93
Caudate [34]
  Drug uptake: 4.3
Caudate [35]
  Drug uptake: 4.43
Caudate [36]
  Drug uptake: 4.04
Caudate [37]
  Drug uptake: 3.46
[38]
  Ratio: 1
[39]
  Ratio: 0.7
Thalamus [40]
  Drug uptake: 4.64
Thalamus [41]
  Drug uptake: 4.77
Thalamus [42]
  Drug uptake: 5.08
Putamen [43]
  Drug uptake: 5.53
Putamen [44]
  Drug uptake: 6.05
Thalamus [45]
  Drug uptake: 5.16
Thalamus [46]
  Drug uptake: 5.06
Thalamus [47]
  Drug uptake: 4.31
Thalamus [48]
  Drug uptake: 3.52
Midbrain [49]
  Drug uptake: 0.01
Midbrain [50]
  Drug uptake: 3.08
Midbrain [51]
  Drug uptake: 4.35
Midbrain [52]
  Drug uptake: 5.52
[53]
  Ratio: 0.9
[54]
  Ratio: 1.1
[55]
  Ratio: 1.8
